The results in this text go back to PubChem BioAssay (NCI).

Holding throughout (assay): inhibition of tumour cell growth, NCI panel, 48 h
Assay [1] has as its system CAKI-1 renal.
The subject of assay [2] is CCRF-CEM leukemia.
In assay [3] the test system is DU-145 prostate.
In assay [4] the test system is HOP-62 NSCLC.
For assay [5], the system named is K-562 leukemia.
In assay [6] the test system is NCI-H460 lung.
Assay [7] concerns SF-295 CNS.
The subject of assay [8] is SF-539 CNS.
Assay [9] concerns TK-10 renal.
The subject of assay [10] is PC-3 prostate.

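Where inhibition never reached the appropriate level, the endpoint shown equals the highest concentration tested. Otherwise, values were interpolated linearly from a five-concentration, 48-hour dose response in 96-well plates. GI50 marks 50% less growth. TGI: concentration producing complete growth inhibition.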

Turning to `COc1ccc(-c2cc(-c3ccc(OC)cc3)nc(NCCCNc3ccnc4cc(Cl)ccc34)n2)cc1`, the GI50 in assay [1] was 11.8 µM; in [2], 2260 nM; in assay [3], 1880 nM; in assay [4], 1560 nM; in assay [5] it was 1790 nM; in assay [6], 1770 nM. The GI50 in assay [7] is 13.9 µM; in [8], 7.16 µM; in assay [9], 1970 nM. In addition, the TGI in assay [1] amounted to 25.8 µM; in [2], 6.98 µM; in [3], 3.38 µM; in assay [4] it was 3.06 µM; in [5], 4.6 µM; in [6] it was 3.32 µM. Further, the figures for the TGI in assay [7], in assay [8] and in [9] were 32 µM, 21.4 µM and 3.56 µM, respectively.
As to `COc1c(C)c(OC)c(C(=O)CC(C)C)c(OC)c1C`, the TGI in [1], in [2], in [3], in [4], in assay [10] and in assay [7] was greater than 100 µM each time. For the same molecule, the TGI in assay [8] and in assay [9] was greater than 100 µM throughout.
Regarding `O=S(=O)(O)n1ccnc1` (tested in a mixture with another compound), the TGI in assay [1], in [3], in assay [4], in [5], in assay [6] and in assay [10] was greater than 100 µM each time. The TGI in assay [7], in assay [8] and in assay [9] was greater than 100 µM in each case.
Turning to `CCN(CC)CCCNc1n[n+]([O-])c2ccccc2[n+]1[O-]`, the TGI in assay [1] is greater than 100 µM; in assay [2], greater than 100 µM; in assay [3], 66.9 µM; in assay [5], 76.1 µM; in assay [6] it was 27.4 µM; in [10], greater than 100 µM. Moreover, the TGI in [7] came out at 49.3 µM; in assay [8], 68.9 µM; in [9], 39 µM.
As to `CCCCc1n(Cc2ccc3ccccc3n2)cc[n+]1Cc1ccc2ccccc2n1`, the GI50 in [2] is 1590 nM; in assay [3] it was 3270 nM; in assay [4], 2720 nM; in [5], 621 nM; in assay [6], 1870 nM; in assay [10] it was 1.51 µM. Further, the GI50 in [7] is 2.45 µM; in assay [8] it was 1.8 µM; in assay [9], 2500 nM. Further, the TGI in assay [2] was 13.9 µM; in assay [3], 16.2 µM; in [4], 11.1 µM; in [5], 12.3 µM; in [6], 11.3 µM; in [10], 10.6 µM. Also, the TGI in assay [7] turned out to be 9.88 µM; in assay [8] it was 12.6 µM; in [9], 10.3 µM.
For the molecule `O=C(c1ccccc1)C1OC1C(=O)c1ccccc1` (stereo not drawn), the GI50 in assay [1] was 2.82 µM; in [3] it was 1320 nM; in [6] it was 3930 nM; in assay [10], 4.72 µM; in [7] it was 5.03 µM; in assay [8], 3.77 µM. The GI50 in assay [9] is 1860 nM. Also, the TGI was 23.4 µM in assay [1]; 4.28 µM in [3]; greater than 100 µM in [6]; 25.7 µM in [10]; 37.3 µM in assay [7]; 12.6 µM in [8]. Also, in assay [9], the TGI was 8.37 µM.
Consider `CCn1c(SCC(=O)Nc2cc(C(F)(F)F)ccc2Cl)nc2ccccc2c1=O`, for which the GI50 is 24 µM in [1]; 32300 nM in assay [3]; 14600 nM in assay [4]; greater than 100000 nM in [5]; 30500 nM in assay [6]; 14 µM in assay [10]. The GI50 was 71.9 µM in assay [7], 40.1 µM in assay [8] and 23700 nM in assay [9]. In addition, the TGI was greater than 100 µM in assay [1]; greater than 100 µM in [3]; 33.5 µM in assay [4]; greater than 100 µM in assay [5]; greater than 100 µM in [6]; greater than 100 µM in assay [10]. The TGI in [7] was greater than 100 µM; in assay [8] it was greater than 100 µM; in assay [9] it was 66.2 µM.
For `COc1ccc2c(c1)C(=O)c1c-2c(N2CCN(C(=O)CCNCCNCCN)CC2)nc2ccccc12`, the GI50 in assay [1] is 18.8 µM; in assay [2], 2850 nM; in [4], 2930 nM; in [5] it was 3330 nM; in assay [6], 2400 nM; in assay [10] it was 10.3 µM. Moreover, the GI50 was 20.8 µM in [7] and 18400 nM in assay [9]. In addition, the TGI was 47.8 µM in assay [1]; 7.93 µM in assay [2]; 7.51 µM in assay [4]; 9.63 µM in [5]; 5.42 µM in assay [6]; 25.9 µM in assay [10]. In addition, the TGI amounted to 44.7 µM in [7] and 42.1 µM in [9].
Consider `Cc1nc2ccccc2c(/C=C/c2ccccc2)c1C(=O)/C=C/c1ccc(C(F)(F)F)cc1`, for which the GI50 in [1] was 1.14 µM; in [2], 381 nM; in assay [5], 775 nM; in assay [10] it was 1.55 µM; in assay [7], 1.67 µM; in assay [8], 1.82 µM. In addition, the GI50 in assay [9] is 2350 nM. Moreover, the TGI in assay [1] was 2.44 µM; in [2], greater than 100 µM; in assay [5], greater than 100 µM; in assay [10], 5.02 µM; in assay [7] it was 3.1 µM; in assay [8] it was 3.27 µM. This molecule had a TGI in assay [9] of 4.04 µM.
On to `O=C(O)CN1C(=O)CN=C(c2ccccn2)c2cc(Cl)ccc21`, for which the TGI in assay [1], in [3], in [4], in assay [5], in assay [6] and in [10] was greater than 100 µM throughout. Besides, the TGI in assay [7], in [8] and in assay [9] was greater than 100 µM in each case.
